For data set [1], the system named is cotton aphid (Aphis gossypii). The data set is described as follows: Translaminar insecticidal activity test on cotton leaves, N-oxides versus free amines. It counts as in vivo. Conditions: for mortality at 500 ppm: Aphis gossypii. The protocol: Certain N-Substituted azacyclic compounds where the N-substituent is O^− (the N-oxides) of the present invention were tested to determine their translaminar characteristics as evidenced by activity against cotton aphid (Aphis gossypii) in comparison with their corresponding free amine derivatives. These tests were conducted in the following manner: For each compound tested, one cotton plant with two mature leaves was selected. On the top of one of the leaves a sticky material used for trapping insects was applied using a stamp of about 2.5 centimeters in diameter. The process was repeated on the bottom of the second leaf of the cotton plant. A solution of 500 ppm of test compound (dissolved in 1:1 acetone and water containing a small amount of surfactant) was then applied to the entire side of each leaf opposite the side stamped with the sticky material using a saturated cotton swab. Upon completion of the application of the test compounds, the cotton plants were maintained in a growth chamber for about 18 hours. After this time the leaves of the test plant were infested with a known number of cotton aphids by placing an infested leaf cutting from the cotton aphid colony directly over the sticky material on each leaf. The leaf cutting on the bottom of a leaf of the test plant was secured to the leaf with a pin. The treated and infested cotton plants were then maintained in a chamber, during which time they were evaluated at daily intervals of from one to up to eight days. A test compound was termed active (A) if the top and bottom of the leaves of the test plant were mostly free of aphids (80% to 100%) when compared to untreated controls. […]

The next data set concerns cotton aphid. The data set is described as follows: Residual insecticidal activity test on sprayed cotton plants. The following applies: 72 h exposure; for mortality at 224 g/ha / mortality at 560 g/ha / mortality at 1120 g/ha: Aphis gossypii, Table 3; for Percent Mortality 3 DAT (simulated sunlight) / Percent Mortality 5 DAT (greenhouse) / Percent Mortality 0 DAT: Table 4; for Percent Mortality 5 DAT (greenhouse): 5 day residual. It counts as in vivo, Aphis gossypii. The protocol:
Certain N-Substituted azacyclic compounds where the N-substituent is O^− (the N-oxides) of the present invention were also tested to determine their residual insecticidal activity. These tests were conducted in the following manner:
For each rate of application of test compound, a 15 mL aliquot of test solution was prepared. Sufficient test compound was dissolved in 1.5 mL of acetone to provide an application rate as high as 1200 grams/Ha. Each solution was then added to 13.5 mL of water containing 300 ppm of a surfactant. There were four replicates for each rate of application of test compound, and all tests included a known chemical standard as well as a standard of water and untreated checks.
A maximum of 14 appropriately sized cotton plants for each rate of application and replicate were arranged in a 28 pot plastic flat and sprayed with the 15 mL sample of test compound using an traveling boom sprayer equipped with a cone spray tip at a rate of 30 gallons/acre under a pressure of 40-44 psi. The untreated checks were sprayed first, followed by the test compounds and standards, all in order of lowest to highest rates of application. Once the spraying was complete, the test plants were allowed to air-dry on the conveyor on which they were sprayed.
In the test to determine residual activity (0 Day Residual) one set of dry plants was infested with leaf cuttings covered with about 25 cotton aphids taken from cotton plants in an aphid colony. The cotton plants were then maintained in a greenhouse or in an atmosphere of simulated direct sunlight for 72 hours after which time cotton aphid mortality was determined.
A second set of dry test plants treated with test compounds were maintained for three days (3 Day Residual), then infested with cotton aphid. The infested plants were maintained and evaluated for cotton aphid mortality after 72 hours as set forth above. Other residual activity periods are optionally evaluated also, for example a 5 day residual.
At the end of the 72 hour exposure period the numbers of live insects were counted a percent mortality of aphids was calculated based on the number of live insects present and the number that were infested onto the plants.

Where [2] appears, read: 500 ppm applied to opposite leaf side, 1 DAT.
Setting [3] is: 500 ppm applied to opposite leaf side, 3 DAT.
[4] abbreviates: 500 ppm applied to opposite leaf side, 6 DAT.
Where [5] appears, read: 24 h, read-out: Percent Mortality at Day After treatment (DAT), 1 DAT.
The mark [6] stands for this setting: 72 h, read-out: Percent Mortality at Day After treatment (DAT), 3 DAT.
The mark [7] stands for this setting: 96 h, read-out: Percent Mortality at Day After treatment (DAT), 4 DAT.
Setting [8] is: 120 h, read-out: Percent Mortality at Day After treatment (DAT), 5 DAT.
The mark [9] stands for this setting: 144 h, read-out: Percent Mortality at Day After treatment (DAT), 6 DAT.
[10] abbreviates: 168 h, read-out: Percent Mortality at Day After treatment (DAT), 7 DAT.
The mark [11] stands for this setting: 3 day residual, greenhouse environment, read-out: Percent Mortality 3 DAT (greenhouse).
[12] abbreviates: 3 day residual, simulated sunlight environment, read-out: Percent Mortality 3 DAT (simulated sunlight).
[13] abbreviates: infested 0 days after treatment, read-out: Percent Mortality 0 DAT.

SMILES strings stand for the structures. Read-outs that look alike come from different tables or passages of the source. A value given as a limit tells only on which side of the number the result lay.

As for `CCc1noc(C2C[N+]3([O-])CCC2C3)n1` (centres unmarked) [Compound 397, N-Oxide of 5-(4-azabicyclo[2.2.1]hept-2-yl)-3-ethyl-1,2,4-oxadiazole], the “Percent Mortality at Day After treatment (DAT), 1 DAT” value in data set [1] (setting [2]) is listed as “SA (SA is 50%-80% mortality when compared to the control)”. Further, in data set [1] (setting [3]), the “Percent Mortality at Day After treatment (DAT), 3 DAT” value is “SA (SA is 50%-80% mortality when compared to the control)”. Further, the “Percent Mortality at Day After treatment (DAT), 4 DAT” value in data set [1] (500 ppm applied to opposite leaf side, 4 DAT) is listed as “SA (SA is 50%-80% mortality when compared to the control)”. The “Percent Mortality at Day After treatment (DAT), 5 DAT” value in data set [1] (500 ppm applied to opposite leaf side, 5 DAT) is “SA (SA is 50%-80% mortality when compared to the control)”. For the same molecule, the “Percent Mortality at Day After treatment (DAT), 6 DAT” value in data set [1] (setting [4]) was “SA (SA is 50%-80% mortality when compared to the control)”.

Take `Cc1nnn(C2CN3CCC2CC3)n1` (centres unmarked) [E, 5-methyl-2-quinuclidin-3-yl-1,2,3,4-tetraazole]: the mortality at 500 ppm in data set [1] (setting [5]), in data set [1] (setting [6]), in data set [1] (setting [7]), in data set [1] (setting [8]) and in data set [1] (setting [9]) was under 50% throughout.

In the case of `Cc1noc(C2CN3CCC2C3)n1` (centres unmarked) [Compound B, 5-(4-azabicyclo[2.2.1]hept-2-yl)-3-methyl-1,2,4-oxadiazole, reference compound], the mortality at 500 ppm in data set [1] (setting [5]) is under 50%; in data set [1] (48 h, read-out: Percent Mortality at Day After treatment (DAT), 2 DAT), under 50%; in data set [1] (setting [6]), under 50%; in data set [1] (setting [9]) it was under 50%; in data set [1] (setting [10]) it was under 50%; in data set [1] (168 h, read-out: mortality throughout the seven-day test period), under 50%. Also, the mortality at 224 g/ha in the data set on cotton aphid (224 g/ha, 3 day residual, greenhouse environment, read-out: Percent Mortality 3 DAT (greenhouse)) was 41%; in the data set with cotton aphid (224 g/ha, 3 day residual, simulated sunlight environment, read-out: Percent Mortality 3 DAT (simulated sunlight)), 21%; with cotton aphid (224 g/ha, infested 0 days after treatment, read-out: Percent Mortality 0 DAT), 100%. For the same molecule, the mortality at 560 g/ha in the data set on cotton aphid (setting [11]) was 84%; with cotton aphid (setting [12]), 49%; in the data set on cotton aphid (setting [13]), 100%. Moreover, the mortality at 1120 g/ha in the data set with cotton aphid (setting [11]) was 99%; in the data set with cotton aphid (setting [12]), 95%; in the data set with cotton aphid (setting [13]), 100%.

For `Cc1nnn(C2C[N+]3([O-])CCC2C3)n1` (centres unmarked) [Compound 402, N-Oxide of 2-(4-azabicyclo[2.2.1]heptyl-2-yl)-5-methyl-1,2,3,4-tetrazole], in data set [1] (setting [2]), the “Percent Mortality at Day After treatment (DAT), 1 DAT” value is given as “A (A is 80%-100% mortality when compared to the control)”. In data set [1] (500 ppm applied to opposite leaf side, 2 DAT), the “Percent Mortality at Day After treatment (DAT), 2 DAT” value is given as “A (A is 80%-100% mortality when compared to the control)”. Also, in data set [1] (setting [3]), the “Percent Mortality at Day After treatment (DAT), 3 DAT” value is “A (A is 80%-100% mortality when compared to the control)”. In addition, the “Percent Mortality at Day After treatment (DAT), 6 DAT” value in data set [1] (setting [4]) was “A (A is 80%-100% mortality when compared to the control)”. Further, the “Percent Mortality at Day After treatment (DAT), 7 DAT” value in data set [1] (500 ppm applied to opposite leaf side, 7 DAT) is listed as “A (A is 80%-100% mortality when compared to the control)”. Further, the “Percent Mortality 3 DAT (simulated sunlight)” value was 50% in the data set with cotton aphid (56 g/ha, 3 day residual, simulated sunlight environment); 84% in the data set on cotton aphid (112 g/ha, 3 day residual, simulated sunlight environment); 92% in the data set on cotton aphid (224 g/ha, 3 day residual, simulated sunlight environment). Also, the “Percent Mortality 5 DAT (greenhouse)” value in the data set with cotton aphid (56 g/ha, greenhouse environment) is 45%; in the data set with cotton aphid (112 g/ha, greenhouse environment), 70%; in the data set on cotton aphid (224 g/ha, greenhouse environment), 84%. For the same molecule, the “Percent Mortality 0 DAT” value was 50% with cotton aphid (56 g/ha, infested 0 days after treatment); 84% with cotton aphid (112 g/ha, infested 0 days after treatment); 92% in the data set on cotton aphid (224 g/ha, infested 0 days after treatment).

As for `Cc1nnn(C2C[N+]3([O-])CCC2CC3)n1` (centres unmarked) [Compound 407, N-Oxide of 5-methyl-2-quinuclidin-3-yl-1,2,3,4-tetraazole], the mortality at 500 ppm is under 50% in data set [1] (setting [5]); 50 to 80% in data set [1] (setting [6]); 50 to 80% in data set [1] (setting [7]); 50 to 80% in data set [1] (setting [8]); 50 to 80% in data set [1] (setting [9]).

On to `Cc1nnn([C@H]2CN3CC[C@H]2C3)n1` [D, 2-(4-azabicyclo[2.2.1]heptyl-2-yl)-5-methyl-1,2,3,4-tetrazole], for which the mortality at 500 ppm in data set [1] (setting [9]) and in data set [1] (setting [10]) was 50 to 80% in each case.

Turning to `CN1CCC=C(c2cnsn2)C1` [A, 3-[1-methyl(1,2,5,6-tetrahydropyrid-3-yl)]-1,2,5-thiadiazole], the mortality at 500 ppm in data set [1] (24 h, 500 ppm applied to opposite leaf side, 1 DAT, read-out: Percent Mortality at Day After treatment (DAT), 1 DAT) is under 50%; in data set [1] (48 h, 500 ppm applied to opposite leaf side, 2 DAT, read-out: Percent Mortality at Day After treatment (DAT), 2 DAT) it was under 50%; in data set [1] (72 h, 500 ppm applied to opposite leaf side, 3 DAT, read-out: Percent Mortality at Day After treatment (DAT), 3 DAT), under 50%; in data set [1] (96 h, 500 ppm applied to opposite leaf side, 4 DAT, read-out: Percent Mortality at Day After treatment (DAT), 4 DAT), under 50%; in data set [1] (144 h, 500 ppm applied to opposite leaf side, 6 DAT, read-out: Percent Mortality at Day After treatment (DAT), 6 DAT), under 50%.

For the molecule `CCc1noc(C2CN3CCC2C3)n1` (centres unmarked) [C, 5-(4-azabicyclo[2.2.1]hept-2-yl)-3-ethyl-1,2,4-oxadiazole], the mortality at 500 ppm in data set [1] (setting [5]), in data set [1] (setting [6]), in data set [1] (setting [7]), in data set [1] (setting [8]) and in data set [1] (setting [9]) was under 50% throughout.

A word on the mortality: it is the share of the test organisms that died.
